Patent publication US12187742B2 (XRAD Therapeutics, Inc., priority 2018, dated 2025)
Counter-ions that a name gives are not always drawn.

Legend:
ATM = ATM (Homo sapiens (Human), UniProt Q13315); assay: ATM in Cell Western Assay (pKAP1 in etoposide-treated MCF-7 cells); type: cell-based; conditions: MCF-7 cells, etoposide 100 μM, 1 hr, pKAP1 readout
How it was run: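 Cells received compounds in a 10-dose, 3-fold series from a 1 μM final top concentration, then 100 μM etoposide, for 1 hr at 37° C. They were then fixed with paraformaldehyde and permeabilized with 0.1% Triton X-100. After immunostaining, plates were scanned on an infrared imager.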

DNA-PK = DNA-PK (Homo sapiens (Human), UniProt P78527); assay: DNA-PK Enzyme-Linked Immunosorbent Assay (phosphorylation of GST-p53 (1-101) peptide); type: biochemical; conditions: ELISA, ATP 20 μM
How it was run: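 ELISA with plate-bound GST-p53 (1-101) phosphorylated by DNA-PK (0.1 μg/mL final) with 20 μM ATP for 1 h at 25 °C. Compounds tested over 10 3-fold doses from 100 nM top final. Phospho-p53 Ser15 detected by antibody, HRP and TMB, absorbance at 450 nm.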

ATM, sequence (Q13315 whole entry): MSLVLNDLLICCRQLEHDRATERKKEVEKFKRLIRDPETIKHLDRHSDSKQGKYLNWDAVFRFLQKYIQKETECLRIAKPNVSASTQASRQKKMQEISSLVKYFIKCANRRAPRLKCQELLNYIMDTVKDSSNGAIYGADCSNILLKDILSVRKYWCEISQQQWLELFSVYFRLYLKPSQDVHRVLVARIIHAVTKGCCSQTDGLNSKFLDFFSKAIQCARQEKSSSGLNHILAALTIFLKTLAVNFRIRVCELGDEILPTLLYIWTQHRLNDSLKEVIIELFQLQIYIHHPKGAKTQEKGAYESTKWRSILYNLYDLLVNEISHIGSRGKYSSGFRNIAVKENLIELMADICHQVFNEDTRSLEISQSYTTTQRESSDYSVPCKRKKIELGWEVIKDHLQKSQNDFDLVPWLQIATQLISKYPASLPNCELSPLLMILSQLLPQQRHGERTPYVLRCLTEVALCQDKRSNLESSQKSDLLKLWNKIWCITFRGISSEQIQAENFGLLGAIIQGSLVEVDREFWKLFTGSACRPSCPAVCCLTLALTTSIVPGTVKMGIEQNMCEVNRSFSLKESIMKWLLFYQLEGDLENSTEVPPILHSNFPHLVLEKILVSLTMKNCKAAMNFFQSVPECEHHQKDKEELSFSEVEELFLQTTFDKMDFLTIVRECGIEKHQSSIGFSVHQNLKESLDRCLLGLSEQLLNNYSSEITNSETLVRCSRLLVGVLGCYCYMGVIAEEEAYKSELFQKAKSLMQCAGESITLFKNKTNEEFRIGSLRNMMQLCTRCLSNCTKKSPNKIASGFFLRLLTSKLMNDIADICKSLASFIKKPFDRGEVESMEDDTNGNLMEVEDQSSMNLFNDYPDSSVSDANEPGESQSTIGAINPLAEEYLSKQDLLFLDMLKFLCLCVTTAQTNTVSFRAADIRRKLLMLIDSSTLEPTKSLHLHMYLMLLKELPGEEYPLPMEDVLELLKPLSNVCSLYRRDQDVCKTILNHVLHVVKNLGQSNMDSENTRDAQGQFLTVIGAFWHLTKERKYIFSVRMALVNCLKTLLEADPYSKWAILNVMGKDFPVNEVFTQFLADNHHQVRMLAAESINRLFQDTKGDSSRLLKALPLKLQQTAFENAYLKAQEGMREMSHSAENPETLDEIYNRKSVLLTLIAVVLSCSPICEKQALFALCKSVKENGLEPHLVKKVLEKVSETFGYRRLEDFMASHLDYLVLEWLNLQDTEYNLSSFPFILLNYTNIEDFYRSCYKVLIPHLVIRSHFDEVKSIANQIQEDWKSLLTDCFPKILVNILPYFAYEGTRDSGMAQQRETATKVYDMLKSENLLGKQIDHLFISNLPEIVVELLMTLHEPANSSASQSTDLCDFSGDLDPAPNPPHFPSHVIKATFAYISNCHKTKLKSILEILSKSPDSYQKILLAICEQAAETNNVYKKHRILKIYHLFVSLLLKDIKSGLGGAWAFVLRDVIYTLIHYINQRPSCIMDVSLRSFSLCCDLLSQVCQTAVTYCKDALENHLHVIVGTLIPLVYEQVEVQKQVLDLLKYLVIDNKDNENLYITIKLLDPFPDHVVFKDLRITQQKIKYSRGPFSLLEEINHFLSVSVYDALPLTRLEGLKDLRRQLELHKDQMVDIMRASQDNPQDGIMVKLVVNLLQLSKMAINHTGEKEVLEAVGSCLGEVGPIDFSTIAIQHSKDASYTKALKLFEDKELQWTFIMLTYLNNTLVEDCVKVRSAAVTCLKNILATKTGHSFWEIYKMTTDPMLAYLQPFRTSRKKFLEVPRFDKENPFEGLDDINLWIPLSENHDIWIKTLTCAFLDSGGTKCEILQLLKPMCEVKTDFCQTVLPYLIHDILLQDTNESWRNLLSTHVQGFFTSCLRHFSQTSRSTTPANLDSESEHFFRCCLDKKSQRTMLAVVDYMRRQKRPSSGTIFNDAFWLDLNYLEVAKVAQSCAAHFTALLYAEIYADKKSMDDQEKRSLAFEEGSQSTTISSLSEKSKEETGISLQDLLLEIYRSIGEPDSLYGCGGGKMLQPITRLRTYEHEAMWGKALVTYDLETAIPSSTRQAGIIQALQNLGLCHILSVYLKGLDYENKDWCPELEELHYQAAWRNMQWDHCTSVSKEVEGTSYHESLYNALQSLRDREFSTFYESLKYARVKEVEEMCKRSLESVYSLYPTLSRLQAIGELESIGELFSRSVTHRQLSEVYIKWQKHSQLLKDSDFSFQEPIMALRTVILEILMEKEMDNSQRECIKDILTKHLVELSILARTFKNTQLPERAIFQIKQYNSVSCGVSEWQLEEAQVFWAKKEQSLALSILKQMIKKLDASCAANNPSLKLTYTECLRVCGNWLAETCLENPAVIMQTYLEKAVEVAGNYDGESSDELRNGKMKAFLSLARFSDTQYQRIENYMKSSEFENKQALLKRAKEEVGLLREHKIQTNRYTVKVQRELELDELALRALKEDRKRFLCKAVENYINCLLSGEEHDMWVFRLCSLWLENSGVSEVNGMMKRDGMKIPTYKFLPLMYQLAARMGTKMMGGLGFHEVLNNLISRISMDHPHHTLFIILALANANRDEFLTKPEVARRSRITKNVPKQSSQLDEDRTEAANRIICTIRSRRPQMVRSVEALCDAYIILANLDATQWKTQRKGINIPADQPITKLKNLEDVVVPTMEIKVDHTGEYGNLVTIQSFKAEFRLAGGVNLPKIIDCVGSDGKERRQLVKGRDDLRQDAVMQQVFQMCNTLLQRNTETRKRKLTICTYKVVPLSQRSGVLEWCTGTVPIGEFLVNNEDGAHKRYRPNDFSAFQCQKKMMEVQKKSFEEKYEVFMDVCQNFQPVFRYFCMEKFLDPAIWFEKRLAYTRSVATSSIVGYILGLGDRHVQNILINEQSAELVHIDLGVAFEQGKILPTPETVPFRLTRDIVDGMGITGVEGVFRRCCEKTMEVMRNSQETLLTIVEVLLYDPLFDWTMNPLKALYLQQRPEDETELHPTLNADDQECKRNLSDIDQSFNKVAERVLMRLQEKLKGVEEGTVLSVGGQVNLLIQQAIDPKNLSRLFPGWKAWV

SMILES	IC50 (ATM) [nM]	IC50 (DNA-PK) [nM]
CN(C)CCCOc1ncc(-c2ccc3ncc4c(c3c2)C2(CC2)C(=O)N4C)cc1NS(=O)(=O)C1COC1 [Example 76]	1 to 100	0.5 to 1
CCCS(=O)(=O)Nc1cc(-c2ccc3ncc4c(c3c2)C2(CC2)C(=O)N4C)cnc1OCCCN(C)C [Example 77, N-(2-(3-(Dimethylamino)propoxy)-5-(3′-methyl-2′-oxo-2′,3′-dihydrospiro [cyclopropane-1,1′-pyrrolo [2,3-c]quinolin]-8′-yl)pyridin-3-yl)propane-1-sulfonamide]	1 to 100	1 to 100
CN1C(=O)C2(CC2)c2c1cnc1ccc(-c3cnc(OCCC4CCCN4C)c(NS(=O)(=O)c4ccccc4)c3)cc21 (stereo not drawn) [Example 78, N-(5-(3′-Methyl-2′-oxo-2′,3′-dihydrospiro[cyclopropane-1,1′-pyrrolo[2,3-c]quinolin]-8′-yl)-2-(2-(1-methylpyrrolidin-2-yl)ethoxy)pyridin-3-yl)benzenesulfonamide]	1 to 100	1 to 100
CN1C(=O)C2(CC2)c2c1cnc1ccc(-c3cnc(OCCC4CCCN4C)c(NS(=O)(=O)C4CC4)c3)cc21 (stereo not drawn) [Example 79, N-(5-(3-Methyl-2′-oxo-2′,3′-dihydrospiro[cyclopropane-1,1′-pyrrolo[2,3-c]quinolin]-8′-yl)-2-(2-(1-methylpyrrolidin-2-yl)ethoxy)pyridin-3-yl)cyclopropanesulfonamide]	1 to 100	1 to 100
CN1C(=O)C2(CC2)c2c1cnc1ccc(-c3cnc(OCCC4CCCCN4C)c(NS(=O)(=O)C4CC4)c3)cc21 (stereo not drawn) [Example 80, N-(5-(3′-Methyl-2′-oxo-2′,3′-dihydrospiro [cyclopropane-1,1′-pyrrolo[2,3-c]quinolin]-8′-yl)-2-(2-(1-methylpiperidin-2-yl)ethoxy)pyridin-3-yl)cyclopropanesulfonamide]	1 to 100	1 to 100
CN1C(=O)C2(CC2)c2c1cnc1ccc(-c3cnc(OCCC4CCCCN4C)c(NS(=O)(=O)c4ccccc4)c3)cc21 (stereo not drawn) [Example 81, N-(5-(3′-Methyl-2′-oxo-2′,3′-dihydrospiro [cyclopropane-1,1′-pyrrolo[2,3-c]quinolin]-8′-yl)-2-(2-(1-methylpiperidin-2-yl)ethoxy)pyridin-3-yl)benzenesulfonamide]	1 to 100	1 to 100
COc1cc2ncc3c(c2cc1-c1cnc(OCCCN(C)C)c(NS(=O)(=O)c2ccccc2)c1)C1(CC1)C(=O)N3C [Example 82, N-(2-(3-(Dimethylamino)propoxy)-5-(7-methoxy-3′-methyl-2′-oxo-2′,3′-dihydrospiro[cyclopropane-1,1′-pyrrolo[2,3-c]quinolin]-8′-yl)pyridin-3-yl) benzenesulfonamide]	0.5 to 1	1 to 100
COCCS(=O)(=O)Nc1cc(-c2ccc3ncc4c(c3c2)C2(CC2)C(=O)N4C)cnc1OCCCN(C)C [Example 83, N-(2-(3-(Dimethylamino)propoxy)-5-(3′-methyl-2′-oxo-2′,3′-dihydrospiro [cyclopropane-1,1′-pyrrolo[2,3-c]quinolin]-8′-yl)pyridin-3-yl)-2-methoxyethane-1-sulfonamide]	< 0.5	1 to 100
CN1CCCC(COc2ncc(-c3ccc4ncc5c(c4c3)C3(CC3)C(=O)N5C)cc2NS(=O)(=O)c2ccccc2)C1 (stereo not drawn) [Example 84, N-(5-(3′-Methyl-2′-oxo-2′,3′-dihydrospiro[cyclopropane-1,1′-pyrrolo[2,3-c]quinolin]-8′-yl)-2-((1-methylpiperidin-3-yl)methoxy)pyridin-3-yl)benzenesulfonamide]	1 to 100	1 to 100
CN1CCCC(COc2ncc(-c3ccc4ncc5c(c4c3)C3(CC3)C(=O)N5C)cc2NS(=O)(=O)C2CC2)C1 (stereo not drawn) [Example 86, N-(5-(3′-Methyl-2′-oxo-2′,3′-dihydrospiro[cyclopropane-1,1′-pyrrolo[2,3-c]quinolin]-8′-yl)-2-((1-methylpiperidin-3-yl)methoxy)pyridin-3-yl)cyclopropanesulfonamide]	1 to 100	1 to 100
CN(C)CCCOc1ncc(-c2ccc3ncc4c(c3c2)C2(CC2)C(=O)N4C)cc1NS(=O)(=O)c1ccc(F)cc1 [Example 88, N-(2-(3-(Dimethylamino)propoxy)-5-(3′-methyl-2′-oxo-2′,3′-dihydrospiro [cyclopropane-1,1′-pyrrolo[2,3-c]quinolin]-8′-yl)pyridin-3-yl)-4-fluorobenzenesulfonamide]	0.5 to 1	< 0.5
CN(C)CCCOc1ncc(-c2ccc3ncc4c(c3c2)C2(CC2)C(=O)N4C)cc1NS(=O)(=O)N1CCCC1 [Example 89, N-(2-(3-(Dimethylamino)propoxy)-5-(3′-methyl-2′-oxo-2′,3′-dihydrospiro [cyclopropane-1,1′-pyrrolo[2,3-c]quinolin]-8′-yl)pyridin-3-yl)pyrrolidine-1-sulfonamide hydrochloride]	0.5 to 1	< 0.5
CN(C)CCCOc1ccc(-c2ccc3ncc4c(c3c2)C2(CC2)C(=O)N4C)cc1NS(=O)(=O)c1cccc(F)c1 [Example 90]	0.5 to 1	1 to 100
CN(C)CCCOc1ncc(-c2ccc3ncc4c(c3c2)C2(CC2)C(=O)N4C)cc1NS(=O)(=O)c1cnn(C)c1 [Example 91, N-(2-(3-(Dimethylamino)propoxy)-5-(3′-methyl-2′-oxo-2′,3′-dihydrospiro [cyclopropane-1,1′-pyrrolo[2,3-c]quinolin]-8′-yl)pyridin-3-yl)-1-methyl-1H-pyrazole-4-sulfonamide]	1 to 100	< 0.5
CN(C)CCCOc1ncc(-c2ccc3ncc4c(c3c2)C2(CC2)C(=O)N4C)cc1NS(=O)(=O)c1ccsc1 [Example 92, N-(2-(3-(Dimethylamino)propoxy)-5-(3′-methyl-2′-oxo-2′,3′-dihydrospiro [cyclopropane-1,1′-pyrrolo[2,3-c]quinolin]-8′-yl)pyridin-3-yl)thiophene-3-sulfonamide]	0.5 to 1	< 0.5
COc1ccc(S(=O)(=O)Nc2cc(-c3ccc4ncc5c(c4c3)C3(CC3)C(=O)N5C)cnc2OCCCN(C)C)cc1 [Example 93, N-(2-(3-(Dimethylamino)propoxy)-5-(3′-methyl-2′-oxo-2′,3′-dihydrospiro [cyclopropane-1,1′-pyrrolo[2,3-c]quinolin]-8′-yl)pyridin-3-yl)-4-methoxybenzenesulfonamide]	1 to 100	< 0.5
CN(C)CCCOc1ncc(-c2ccc3ncc4c(c3c2)C2(CC2)C(=O)N4C)cc1NS(=O)(=O)c1cccc(C#N)c1 [Example 96, 3-Cyano-N-(2-(3-(dimethylamino)propoxy)-5-(3′-methyl-2′-oxo-2′,3′-dihydrospiro[cyclopropane-1,1′-pyrrolo[2,3-c]quinolin]-8′-yl)pyridin-3-yl)benzenesulfonamide]	0.5 to 1	< 0.5
CN(C)CCCOc1c(F)cc(-c2ccc3ncc4c(c3c2)C2(CC2)C(=O)N4C)cc1NS(=O)(=O)c1ccccc1 [Example 97, N-(2-(3-(Dimethylamino)propoxy)-3-fluoro-5-(3′-methyl-2′-oxo-2′,3′-dihydrospiro[cyclopropane-1,1′-pyrrolo[2,3-c]quinolin]-8′-yl)phenyl)benzenesulfonamide]	1 to 100	1 to 100
CN(C)CCCOc1ccc(-c2ccc3ncc4c(c3c2)C2(CC2)C(=O)N4C)cc1NS(=O)(=O)c1cccc(Cl)c1 [Example 98, 3-Chloro-N-(2-(3-(dimethylamino)propoxy)-5-(3′-methyl-2′-oxo-2′,3′-dihydrospiro[cyclopropane-1,1′-pyrrolo[2,3-c]quinolin]-8′-yl)phenyl) benzenesulfonamide]	1 to 100	1 to 100
Cc1ccc(S(=O)(=O)Nc2cc(-c3ccc4ncc5c(c4c3)C3(CC3)C(=O)N5C)cnc2OCCCN(C)C)cc1 [Example 100, N-(2-(3-(Dimethylamino)propoxy)-5-(3′-methyl-2′-oxo-2′,3′-dihydrospiro [cyclopropane-1,1′-pyrrolo[2,3-c]quinolin]-8′-yl)pyridin-3-yl)-4-methylbenzenesulfonamide]	1 to 100	< 0.5
CN1C(=O)C2(CC2)c2c1cnc1ccc(-c3cnc(OC4CC(N(C)C)C4)c(NS(=O)(=O)c4ccccc4)c3)cc21 (stereo not drawn) [Example 102, N-(2-(3-(Dimethylamino)cyclobutoxy)-5-(3′-methyl-2′-oxo-2′,3′-dihydrospiro[cyclopropane-1,1′-pyrrolo[2,3-c]quinolin]-8′-yl)pyridin-3-yl)benzenesulfonamide]	1 to 100	1 to 100
CN(C)CCCOc1ncc(-c2ccc3ncc4c(c3c2)C2(CC2)C(=O)N4C)cc1NS(=O)(=O)Cc1ccccc1 [Example 103, N-(2-(3-(Dimethylamino)propoxy)-5-(3′-methyl-2′-oxo-2′,3′-dihydrospiro [cyclopropane-1,1′-pyrrolo[2,3-c]quinolin]-8′-yl)pyridin-3-yl)-1-phenylmethanesulfonamide]	1 to 100	1 to 100
COc1cccc(S(=O)(=O)Nc2cc(-c3ccc4ncc5c(c4c3)C3(CC3)C(=O)N5C)cnc2OCCCN(C)C)c1 [Example 104]	0.5 to 1	1 to 100
CN(C)CCCOc1ncc(-c2ccc3ncc4c(c3c2)C2(CC2)C(=O)N4C)cc1NS(=O)(=O)c1cccc(C(F)(F)F)c1 [Example 106, N-(2-(3-(Dimethylamino)propoxy)-5-(3′-methyl-2′-oxo-2′,3′-dihydrospiro [cyclopropane-1,1′-pyrrolo[2,3-c]quinolin]-8′-yl)pyridin-3-yl)-3-(trifluoromethyl)benzenesulfonamide]	1 to 100	< 0.5
